Patent US20230287066A1, “MATERIALS AND METHODS FOR MAKING SEXUAL STAGE […]” (The Penn State Research Foundation, priority 2020, published 2023)

Assays:
[1] = test system: P. falciparum expressing a regulatable AP2-G polypeptide and having a reduced level of histone modification at the 3′ pairing element of the pfap2-g locus; experiment: Gametocytogenesis (percentage sexual conversion) of engineered parasites treated with Shld1; assay type: cell-based, Plasmodium falciparum; conditions: in the presence of a Shld1 molecule; 3′ pairing element mutant AP2-G-HA-FKBP parasites
Experimental: The number of gametocytes was determined by splitting the culture in two and treating half with Shld1 and half with the same volume of the vehicle (Day 1). The parental cell line (AP2-G-HA-FKBP) and the pairing element mutant were tested in parallel. After 48 hours (on Day 3), the number of parasites present was counted by microscopy and N-acetylglucosamine was added to all cultures to specifically kill asexual parasites. On Day 9, when gametocytes developed enough that they were readily distinguished from asexual stage parasites by morphology, the number of gametocytes were counted by microscopy. Percentage sexual conversion was calculated by dividing this by the proportion of parasite-infected red blood cells on Day 3.

[2] = test system: AP2-G-HA-FKBP polypeptide; experiment: Conditional knockdown of PfAP2-G fused to FKBP destabilization domain; assay type: cell-based, Plasmodium falciparum; conditions: in the presence of Shld1; AP2-G-HA-FKBP parasites (FIG. 1)
Text: A regulatable knockdown of PfAP2-G was generated by engineering a transgenic line with AP2-G fused to an FKBP destabilization domain (DD) as described elsewhere (see, e.g., Kafsack et al., Nature, 507(7491):248-52 (2014)). Briefly, a construct encoding an AP2-G polypeptide fused to an HA-tag and an FKBP DD (e.g., an AP2-G-HA-FKBP polypeptide) was stably integrated into the genome of Plasmodium falciparum lines.
In the absence of the ligand Shield-1 (Shld1), the FKBP destabilization domain was unstable and targets fusion proteins for proteolytic degradation.

For `CC[C@H](C(=O)N1CCCC[C@H]1C(=O)O[C@H](CCc1ccc(OC)c(OC)c1)c1cccc(OCCN2CCOCC2)c1)c1cc(OC)c(OC)c(OC)c1` [Shld1], the “P. falciparum that commit to gametocytogenesis and form sexual stage parasites” value [1] was “over 60%” and the “stabilization of FKBP destabilization domain / gametocyte production” value [2] was “gametocytes were produced”.
